In assay [1] the test system is Hepatitis C virus. Put plainly: Antiviral activity against HCV by replicon-based cellular assay. In kind it is functional, Hepacivirus hominis. A general note: Replicon systems follow genome replication, usually without infectious particles.
Assay [2] is described as follows: Inhibition of HCV NS3 protease by continuous spectrophotometric assay. Set-up: species or system Hepacivirus hominis.
The nature of assay [3]: Selectivity ratio, Ki for human neutrophil elastase to Ki for HCV NS3 protease.

The EC90 is the concentration at which the effect reaches the 90% level. Broadly, the pKi is the Ki on a negative log10 scale, so that one unit is a factor of ten. Low readings indicate a high Ki, high ones a low Ki.

pKi: −log10 of the molar value. Active and inactive are the calls of the source. The rule behind the calls is not given here. Starred links: 1 amine or outer side, 2 acyl side, 3 side chain; linkers in the order of their positions; H or OH if unused. Non-standard residues stand in square brackets, D forms with d. Residues, ends and D or L forms follow the SMILES beside them. *: point of attachment. Pro(4R-OPh) = O=C(O)[C@@H]1C[C@@H](Oc2ccccc2)CN1; NH(1R-phenylethyl) = C[C@@H](N*)c1ccccc1; azaNva = CCCN(N[*:1])C(=O)[*:2]; Aad = N[C@@H](CCCC(=O)O)C(=O)O; Tle = CC(C)(C)[C@H](N)C(=O)O

In turn, `CCCN(NC(=O)[C@@H]1[C@@H]2[C@H](CN1C(=O)[C@@H](NC(=O)N[C@H](CN1C(=O)C3CCC(C3)C1=O)C(C)(C)C)C(C)(C)C)C2(C)C)C(=O)NC1CCCCC1` yielded an EC90 in assay [1] of 16000 nM. The same compound showed a pKi in assay [2] of 5.89.

Compound `CCCN(NC(=O)[C@@H]1[C@@H]2[C@H](CN1C(=O)[C@@H](NC(=O)N[C@H](CN1C(=O)C3CCC(C3)C1=O)C(C)(C)C)C(C)(C)C)C2(C)C)C(=O)NC1CC1` gave an EC90 in assay [1] of 6000 nM. The same compound showed a pKi in assay [2] of 6.12.

On to `CCCN(NC(=O)[C@@H]1[C@@H]2[C@H](CN1C(=O)[C@@H](NC(=O)N[C@H](CN(C)S(=O)(=O)c1cccnc1)C(C)(C)C)C1CCCCC1)C2(C)C)C(=O)N[C@H](C)c1ccccc1`, for which, in assay [1] (Hepacivirus hominis), the EC90 result is “inactive”. The same compound had a negative-log Ki (pKi) in assay [2] of 6.64.

As to `CCCN(NC(=O)[C@@H]1[C@@H]2[C@H](CN1C(=O)[C@@H](NC(=O)N[C@H](CN(C)S(C)(=O)=O)C(C)(C)C)C(C)(C)C)C2(C)C)C(=O)N[C@H](C)c1ccccc1`, in assay [1], the EC90 came out at 700 nM. The same compound had a pKi in assay [2] of 6.96.

In the case of `CCCN(NC(=O)[C@@H]1[C@@H]2[C@H](CN1C(=O)[C@@H](NC(=O)N[C@H](CN1C(=O)C3CCC(C3)C1=O)C(C)(C)C)C(C)(C)C)C2(C)C)C(=O)c1ccccc1`, in assay [1] (Hepacivirus hominis), the EC90 result was “inactive”. Further, the pKi in assay [2] was 4.28.

`CCCN(NC(=O)[C@@H]1[C@@H]2[C@H](CN1C(=O)[C@@H](NC(=O)N[C@H](CN1C(=O)C3CCC(C3)C1=O)C(C)(C)C)C(C)(C)C)C2(C)C)C(=O)C1CC1` displayed an EC90 in assay [1] of 15000 nM. The pKi in assay [2] was 5.52.

In turn, `C[C@@H](NC(=O)N(CC1CC1)NC(=O)[C@@H]1[C@@H]2[C@H](CN1C(=O)[C@@H](NC(=O)N[C@H](CN1C(=O)C3CCC(C3)C1=O)C(C)(C)C)C(C)(C)C)C2(C)C)c1ccccc1` returned an EC90 in assay [1] of 1100 nM. The pKi in assay [2] was 6.60.

`CCCN(NC(=O)[C@@H]1[C@@H]2[C@H](CN1C(=O)[C@@H](NC(=O)N[C@H](CN1C(=O)C3CCC(C3)C1=O)C(C)(C)C)C(C)(C)C)C2(C)C)C(=O)N[C@H](C)c1ccccc1` gave an EC90 in assay [1] of 250 nM. In addition, the pKi in assay [2] is 7.49.

Take `CCCN(NC(=O)[C@@H]1[C@@H]2[C@H](CN1C(=O)[C@@H](NC(=O)N[C@H](CN1C(=O)C3CCC(C3)C1=O)C(C)(C)C)C(C)(C)C)C2(C)C)C(=O)OC(C)(C)C`: it took 24000 nM to reach the 90% level in assay [1] (EC90). In assay [2], this compound gave a pKi of 5.51.

Consider `CCCN(NC(=O)[C@@H]1[C@@H]2[C@H](CN1C(=O)[C@@H](NC(=O)N[C@H](CN1C(=O)CC(C)(C)CC1=O)C(C)(C)C)C(C)(C)C)C2(C)C)C(=O)N[C@H](C)c1ccccc1`, for which the Ratio Ki in assay [3] stood at 960. Further, it took 300 nM to reach the 90% level in assay [1] (EC90). For the same compound, in assay [2], the pKi was 7.19.

As to `CCCN(NC(=O)[C@@H]1C[C@@H](Oc2ccccc2)CN1C(=O)[C@@H](NC(=O)[C@@H](NC(=O)[C@H](CCCC(=O)O)NC(=O)[C@H](CCCC(=O)O)NC(C)=O)C(C)C)C(C)(C)C)C(=O)N[C@H](C)c1ccccc1` (Ac-[Aad][Aad]V[Tle][Pro(4R-OPh)][azaNva]-{NH(1R-phenylethyl)}), in assay [2], the negative-log Ki (pKi) was 7.11.

Regarding `C[C@@H](NC(=O)N(CC1CC1)NC(=O)[C@@H]1[C@@H]2[C@H](CN1C(=O)[C@@H](NC(=O)N[C@H](CN1C(=O)CC(C)(C)CC1=O)C(C)(C)C)C(C)(C)C)C2(C)C)c1ccccc1`, the EC90 result in assay [1] (Hepacivirus hominis) is “inactive”. In addition, in assay [2], the pKi was 6.70.

`CCCN(NC(=O)[C@@H]1[C@@H]2[C@H](CN1C(=O)[C@@H](NC(=O)N[C@H](CN1C(=O)C3CCC(C3)C1=O)C(C)(C)C)C(C)(C)C)C2(C)C)C(=O)CCc1ccccc1` gave an EC90 in assay [1] of 3500 nM. The same compound had a pKi in assay [2] of 6.14.

In assay [1], `CCCN(NC(=O)[C@@H]1[C@@H]2[C@H](CN1C(=O)[C@@H](NC(=O)N[C@H](CN1C(=O)C3CCC(C3)C1=O)C(C)(C)C)C(C)(C)C)C2(C)C)C(=O)NC(C)(C)C` returned an EC90 of 8000 nM. In assay [2], this compound had a pKi of 5.80.

As to `CCCN(NC(=O)[C@@H]1[C@@H]2[C@H](CN1C(=O)[C@@H](NC(=O)N[C@H](CN1C(=O)C3CCC(C3)C1=O)C(C)(C)C)C(C)(C)C)C2(C)C)C(C)=O`, the EC90 result in assay [1] (Hepacivirus hominis) is “inactive”. In assay [2], this compound had a pKi of 4.66.

As for `CC(C)(C)NC(=O)N[C@H](C(=O)N1C[C@H]2[C@@H]([C@H]1C(=O)NC(CC1CCC1)C(=O)C(N)=O)C2(C)C)C(C)(C)C` (stereo not given in full) [BOCEPREVIR], in assay [3], the Ratio Ki came to 2200. This compound also showed an EC90 in assay [1] of 350 nM. Moreover, in assay [2], the pKi was 7.85.

`CCCN(NC(=O)[C@@H]1[C@@H]2[C@H](CN1C(=O)[C@@H](NC(=O)N[C@H](CN1C(=O)C3CCC(C3)C1=O)C(C)(C)C)C(C)(C)C)C2(C)C)C(=O)Nc1ccccc1` yielded an EC90 in assay [1] of 2400 nM. Besides, the pKi in assay [2] was 6.02.

(Values after ChEMBL document CHEMBL1153460, “Potent aza-peptide derived inhibitors of HCV NS3 protease” (Bioorg Med Chem Lett, 2009).)
